According to ChEMBL document CHEMBL5678810:
Activity calls are given as the source filed them. The rule behind the calls is not given here.

How the values were obtained:
[1] = molecular target: Aurora kinase B (Homo sapiens) (UniProt Q96GD4); assay: Inhibition of T7 bacteriophage fused human AURKB at 10 uM by KINOMEscan analysis relative to control
[2] = molecular target: Aurora kinase C (Homo sapiens) (UniProt Q9UQB9); assay: Inhibition of T7 bacteriophage fused human AURKC at 10 uM by KINOMEscan analysis relative to control
[3] = molecular target: Calcium/calmodulin-dependent protein kinase type II subunit alpha (Homo sapiens) (UniProt Q9UQM7); assay: Inhibition of T7 bacteriophage fused human CAMK2A at 10 uM by KINOMEscan analysis relative to control
[4] = molecular target: Tyrosine-protein kinase JAK1 (Homo sapiens) (UniProt P23458); assay: Inhibition of T7 bacteriophage fused human JAK1 JH1catalytic domain at 10 uM by KINOMEscan analysis relative to control
Sequence of Tyrosine-protein kinase JAK1 (Homo sapiens) (P23458 whole entry, the tested form may be a part): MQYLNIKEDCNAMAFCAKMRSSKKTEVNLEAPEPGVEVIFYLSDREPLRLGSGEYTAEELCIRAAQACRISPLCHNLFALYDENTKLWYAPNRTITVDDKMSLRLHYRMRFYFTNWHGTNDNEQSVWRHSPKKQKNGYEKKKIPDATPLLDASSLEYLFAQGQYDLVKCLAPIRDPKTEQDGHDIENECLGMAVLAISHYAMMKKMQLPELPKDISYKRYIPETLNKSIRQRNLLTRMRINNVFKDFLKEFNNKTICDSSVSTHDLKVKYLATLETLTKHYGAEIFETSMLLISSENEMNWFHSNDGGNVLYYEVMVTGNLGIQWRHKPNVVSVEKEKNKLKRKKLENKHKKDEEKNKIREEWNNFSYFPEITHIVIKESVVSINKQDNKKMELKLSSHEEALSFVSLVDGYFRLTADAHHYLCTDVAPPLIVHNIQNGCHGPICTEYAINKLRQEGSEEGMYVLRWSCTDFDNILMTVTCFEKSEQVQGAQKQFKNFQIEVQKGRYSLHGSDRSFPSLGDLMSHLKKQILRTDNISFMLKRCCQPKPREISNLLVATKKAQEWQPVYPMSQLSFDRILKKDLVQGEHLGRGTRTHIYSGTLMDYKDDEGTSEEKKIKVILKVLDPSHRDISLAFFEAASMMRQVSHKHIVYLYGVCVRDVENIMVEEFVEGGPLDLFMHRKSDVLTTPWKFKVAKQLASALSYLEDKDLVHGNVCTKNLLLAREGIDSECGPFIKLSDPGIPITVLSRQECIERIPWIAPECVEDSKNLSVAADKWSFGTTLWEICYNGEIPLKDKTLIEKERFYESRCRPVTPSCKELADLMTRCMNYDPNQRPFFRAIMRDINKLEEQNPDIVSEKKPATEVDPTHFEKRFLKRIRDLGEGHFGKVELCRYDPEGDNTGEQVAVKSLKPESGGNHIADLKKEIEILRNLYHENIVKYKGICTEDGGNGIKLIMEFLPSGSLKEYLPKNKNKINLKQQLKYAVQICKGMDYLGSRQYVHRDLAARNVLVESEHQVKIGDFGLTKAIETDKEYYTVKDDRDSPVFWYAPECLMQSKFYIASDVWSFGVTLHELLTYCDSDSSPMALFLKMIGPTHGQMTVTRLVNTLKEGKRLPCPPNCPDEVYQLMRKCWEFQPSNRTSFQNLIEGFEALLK

[5] = test system: Mast/stem cell growth factor receptor Kit (Homo sapiens), P10721 [L576P]; assay: Inhibition of T7 bacteriophage fused human KIT L576P mutant at 10 uM by KINOMEscan analysis relative to control
[6] = test system: Mast/stem cell growth factor receptor Kit (Homo sapiens), P10721 [V559D,V654A]; assay: Inhibition of T7 bacteriophage fused human KIT V559D/V654A mutant at 10 uM by KINOMEscan analysis relative to control
[7] = molecular target: Myosin light chain kinase (Homo sapiens) (UniProt Q32MK0); assay: Inhibition of T7 bacteriophage fused human MLCK at 10 uM by KINOMEscan analysis relative to control
[8] = molecular target: Mitogen-activated protein kinase kinase kinase 11 (Homo sapiens) (UniProt Q16584); assay: Inhibition of T7 bacteriophage fused human MLK3 at 10 uM by KINOMEscan analysis relative to control
[9] = molecular target: Mitogen-activated protein kinase 12 (Homo sapiens) (UniProt P53778); assay: Inhibition of T7 bacteriophage fused human p38-gamma at 10 uM by KINOMEscan analysis relative to control
Sequence of Mitogen-activated protein kinase 12 (Homo sapiens) (P53778 whole entry, the tested form may be a part): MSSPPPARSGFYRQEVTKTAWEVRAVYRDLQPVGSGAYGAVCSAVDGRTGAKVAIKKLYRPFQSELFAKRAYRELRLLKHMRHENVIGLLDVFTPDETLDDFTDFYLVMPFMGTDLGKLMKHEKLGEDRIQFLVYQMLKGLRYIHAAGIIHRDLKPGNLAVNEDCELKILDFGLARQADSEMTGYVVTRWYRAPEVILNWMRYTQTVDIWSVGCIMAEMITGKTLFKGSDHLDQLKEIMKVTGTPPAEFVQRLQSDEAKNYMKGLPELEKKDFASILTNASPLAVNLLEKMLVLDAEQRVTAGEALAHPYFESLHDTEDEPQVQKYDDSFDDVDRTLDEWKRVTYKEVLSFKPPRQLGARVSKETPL

[10] = molecular target: 3-phosphoinositide-dependent protein kinase 1 (Homo sapiens) (UniProt O15530); assay: Inhibition of T7 bacteriophage fused human PDPK1 at 10 uM by KINOMEscan analysis relative to control
Sequence of 3-phosphoinositide-dependent protein kinase 1 (Homo sapiens) (O15530 whole entry, the tested form may be a part): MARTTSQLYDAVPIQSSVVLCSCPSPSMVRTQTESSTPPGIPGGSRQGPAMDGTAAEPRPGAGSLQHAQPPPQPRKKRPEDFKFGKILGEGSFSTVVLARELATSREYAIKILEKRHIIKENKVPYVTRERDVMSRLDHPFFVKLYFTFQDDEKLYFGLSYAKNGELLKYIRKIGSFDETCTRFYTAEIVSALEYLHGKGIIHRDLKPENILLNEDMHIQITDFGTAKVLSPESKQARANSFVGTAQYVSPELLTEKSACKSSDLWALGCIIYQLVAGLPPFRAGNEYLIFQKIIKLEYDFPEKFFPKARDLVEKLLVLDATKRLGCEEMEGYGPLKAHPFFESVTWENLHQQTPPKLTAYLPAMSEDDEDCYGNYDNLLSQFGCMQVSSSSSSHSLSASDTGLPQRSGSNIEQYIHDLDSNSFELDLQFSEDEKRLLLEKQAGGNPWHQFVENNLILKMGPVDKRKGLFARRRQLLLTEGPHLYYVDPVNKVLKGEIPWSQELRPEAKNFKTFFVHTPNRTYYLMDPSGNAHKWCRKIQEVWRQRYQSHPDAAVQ

[11] = molecular target: Phosphatidylinositol 5-phosphate 4-kinase type-2 gamma (Homo sapiens) (UniProt Q8TBX8); assay: Inhibition of T7 bacteriophage fused human PIP5K2C at 10 uM by KINOMEscan analysis relative to control
[12] = molecular target: Interferon-induced, double-stranded RNA-activated protein kinase (Homo sapiens) (UniProt P19525); assay: Inhibition of T7 bacteriophage fused human PRKR at 10 uM by KINOMEscan analysis relative to control
[13] = test system: Proto-oncogene tyrosine-protein kinase receptor Ret (Homo sapiens), P07949 [V804M]; assay: Inhibition of T7 bacteriophage fused human RET V804M mutant at 10 uM by KINOMEscan analysis relative to control
[14] = molecular target: Ribosomal protein S6 kinase alpha-5 (Homo sapiens) (UniProt O75582); assay: Inhibition of T7 bacteriophage fused human C-terminal RPS6KA5 Kinase domain-2 at 10 uM by KINOMEscan analysis relative to control
[15] = molecular target: Ribosomal protein S6 kinase alpha-1 (Homo sapiens) (UniProt Q15418); assay: Inhibition of T7 bacteriophage fused human N-terminal RSK1 Kinase domain-1 at 10 uM by KINOMEscan analysis relative to control
Sequence of Ribosomal protein S6 kinase alpha-1 (Homo sapiens) (Q15418 whole entry, the tested form may be a part): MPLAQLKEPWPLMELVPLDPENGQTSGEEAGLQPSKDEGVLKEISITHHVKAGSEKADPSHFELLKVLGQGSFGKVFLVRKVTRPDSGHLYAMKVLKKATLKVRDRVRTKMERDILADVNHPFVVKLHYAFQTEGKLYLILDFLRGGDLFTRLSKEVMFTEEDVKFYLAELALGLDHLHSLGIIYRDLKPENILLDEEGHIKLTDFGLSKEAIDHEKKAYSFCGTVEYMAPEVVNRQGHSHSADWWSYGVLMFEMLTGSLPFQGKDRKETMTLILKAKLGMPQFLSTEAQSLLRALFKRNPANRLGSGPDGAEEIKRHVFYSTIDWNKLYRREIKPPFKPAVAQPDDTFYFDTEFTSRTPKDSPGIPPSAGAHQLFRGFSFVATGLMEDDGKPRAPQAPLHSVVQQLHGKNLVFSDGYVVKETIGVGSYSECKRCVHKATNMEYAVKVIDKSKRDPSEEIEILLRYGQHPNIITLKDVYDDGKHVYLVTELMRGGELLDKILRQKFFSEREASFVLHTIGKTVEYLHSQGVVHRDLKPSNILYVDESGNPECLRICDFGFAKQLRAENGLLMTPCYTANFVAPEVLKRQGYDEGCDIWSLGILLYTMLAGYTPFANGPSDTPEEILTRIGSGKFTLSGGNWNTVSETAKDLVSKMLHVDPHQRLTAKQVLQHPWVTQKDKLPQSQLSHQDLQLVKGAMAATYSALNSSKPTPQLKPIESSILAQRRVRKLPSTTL

[16] = molecular target: Ribosomal protein S6 kinase alpha-2 (Homo sapiens) (UniProt Q15349); assay: Inhibition of T7 bacteriophage fused human C-terminal RSK3 Kinase domain-2 at 10 uM by KINOMEscan analysis relative to control
[17] = molecular target: Tyrosine-protein kinase Fgr (Homo sapiens) (UniProt P09769); assay: Inhibition of T7 bacteriophage fused human FGR at 10 uM by KINOMEscan analysis relative to control; values are per cent of control
[18] = molecular target: Dual specificity protein kinase CLK2 (Homo sapiens) (UniProt P49760); assay: Inhibition of T7 bacteriophage fused human CLK2 at 10 uM by KINOMEscan analysis relative to control; values are per cent of control
[19] = molecular target: Mitogen-activated protein kinase 1 (Homo sapiens) (UniProt P28482); assay: Inhibition of T7 bacteriophage fused human ERK2 at 10 uM by KINOMEscan analysis relative to control; values are per cent of control
[20] = molecular target: Mitogen-activated protein kinase 7 (Homo sapiens, UniProt Q13164); assay: Inhibition of T7 bacteriophage fused human ERK5 at 10 uM by KINOMEscan analysis relative to control; values are per cent of control
[21] = molecular target: Insulin receptor (Homo sapiens) (UniProt P06213); assay: Inhibition of T7 bacteriophage fused human INSR at 10 uM by KINOMEscan analysis relative to control; values are per cent of control
[22] = molecular target: Serine/threonine-protein kinase STK11 (Homo sapiens) (UniProt Q15831); assay: Inhibition of T7 bacteriophage fused human LKB1 at 10 uM by KINOMEscan analysis relative to control; values are per cent of control
Sequence of Serine/threonine-protein kinase STK11 (Homo sapiens) (Q15831 whole entry, the tested form may be a part): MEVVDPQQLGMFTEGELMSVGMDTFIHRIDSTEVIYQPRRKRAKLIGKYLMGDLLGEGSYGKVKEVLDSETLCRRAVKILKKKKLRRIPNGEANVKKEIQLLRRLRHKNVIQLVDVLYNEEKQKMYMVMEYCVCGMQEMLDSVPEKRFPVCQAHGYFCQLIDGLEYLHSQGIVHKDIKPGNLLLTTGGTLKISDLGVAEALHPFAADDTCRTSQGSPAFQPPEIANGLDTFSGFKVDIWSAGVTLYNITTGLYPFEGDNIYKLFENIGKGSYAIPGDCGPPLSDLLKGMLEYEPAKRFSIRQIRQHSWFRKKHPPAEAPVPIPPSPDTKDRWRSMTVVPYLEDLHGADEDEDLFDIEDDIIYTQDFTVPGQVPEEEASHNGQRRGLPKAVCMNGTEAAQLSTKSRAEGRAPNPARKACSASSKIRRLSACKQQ

[23] = molecular target: Macrophage colony-stimulating factor 1 receptor (Homo sapiens) (UniProt P07333); assay: Inhibition of T7 bacteriophage fused human CSF1R at 10 uM by KINOMEscan analysis relative to control; values are per cent of control
[24] = molecular target: Ephrin type-A receptor 8 (Homo sapiens) (UniProt P29322); assay: Inhibition of T7 bacteriophage fused human EPHA8 at 10 uM by KINOMEscan analysis relative to control; values are per cent of control
[25] = molecular target: Mitogen-activated protein kinase kinase kinase 15 (Homo sapiens) (UniProt Q6ZN16); assay: Inhibition of T7 bacteriophage fused human MAP3K15 at 10 uM by KINOMEscan analysis relative to control; values are per cent of control
Sequence of Mitogen-activated protein kinase kinase kinase 15 (Homo sapiens) (Q6ZN16 whole entry, the tested form may be a part): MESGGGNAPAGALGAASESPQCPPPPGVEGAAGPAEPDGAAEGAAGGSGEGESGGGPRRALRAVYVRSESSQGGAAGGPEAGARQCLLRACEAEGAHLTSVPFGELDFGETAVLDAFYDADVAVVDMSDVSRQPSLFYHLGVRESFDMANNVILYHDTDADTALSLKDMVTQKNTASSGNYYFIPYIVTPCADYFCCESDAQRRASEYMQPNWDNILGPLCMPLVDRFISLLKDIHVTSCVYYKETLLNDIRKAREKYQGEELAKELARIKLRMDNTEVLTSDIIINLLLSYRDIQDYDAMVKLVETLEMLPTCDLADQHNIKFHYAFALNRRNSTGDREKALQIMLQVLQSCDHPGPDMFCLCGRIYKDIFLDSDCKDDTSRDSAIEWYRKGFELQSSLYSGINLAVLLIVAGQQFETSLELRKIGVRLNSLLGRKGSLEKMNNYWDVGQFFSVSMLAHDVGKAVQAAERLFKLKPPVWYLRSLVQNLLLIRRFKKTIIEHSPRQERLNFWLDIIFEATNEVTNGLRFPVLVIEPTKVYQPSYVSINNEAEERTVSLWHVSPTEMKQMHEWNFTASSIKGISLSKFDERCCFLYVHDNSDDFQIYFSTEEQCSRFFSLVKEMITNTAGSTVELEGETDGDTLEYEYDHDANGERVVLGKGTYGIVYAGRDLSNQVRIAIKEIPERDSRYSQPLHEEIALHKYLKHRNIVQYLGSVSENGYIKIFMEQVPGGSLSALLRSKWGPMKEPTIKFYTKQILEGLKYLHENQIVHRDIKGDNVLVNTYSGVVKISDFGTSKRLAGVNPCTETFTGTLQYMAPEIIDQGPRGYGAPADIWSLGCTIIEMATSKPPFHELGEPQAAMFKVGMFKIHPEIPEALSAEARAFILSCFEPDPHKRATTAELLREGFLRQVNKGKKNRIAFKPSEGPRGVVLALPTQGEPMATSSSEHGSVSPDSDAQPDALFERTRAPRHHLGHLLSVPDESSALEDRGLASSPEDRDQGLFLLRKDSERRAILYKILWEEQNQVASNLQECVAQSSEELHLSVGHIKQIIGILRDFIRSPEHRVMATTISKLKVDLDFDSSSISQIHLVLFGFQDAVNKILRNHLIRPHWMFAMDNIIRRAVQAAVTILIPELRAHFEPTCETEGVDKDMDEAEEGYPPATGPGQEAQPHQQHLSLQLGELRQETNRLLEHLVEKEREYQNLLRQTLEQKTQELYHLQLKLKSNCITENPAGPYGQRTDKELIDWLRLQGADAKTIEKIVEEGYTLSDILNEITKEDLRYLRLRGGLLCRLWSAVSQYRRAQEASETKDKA

[26] = test system: Receptor-type tyrosine-protein kinase FLT3 (Homo sapiens), P36888 [N841I]; assay: Inhibition of T7 bacteriophage fused human FLT3 N841I mutant at 10 uM by KINOMEscan analysis relative to control; values are per cent of control
[27] = molecular target: Leucine-rich repeat serine/threonine-protein kinase 2 (Homo sapiens) (UniProt Q5S007); assay: Inhibition of LRRK2 phosphorylation at Ser910 residue in EBV immortalized human derived lymphoblastoid cells at 0.01 to 3 uM incubated for 90 mins by immunoblot analysis; type: cell-based; conditions: Lymphoblastoid cell, dose 0.01-3 µM
[28] = molecular target: Serine/threonine-protein kinase STK11 (Homo sapiens) (UniProt Q15831); assay: Inhibition of LKB1 Lys2 labeling site in human HEL cell lysate at 10 uM by KiNativ profiling analysis relative to control; type: subcellular

Sequence of Aurora kinase B (Homo sapiens) (Q96GD4 whole entry, the tested form may be a part): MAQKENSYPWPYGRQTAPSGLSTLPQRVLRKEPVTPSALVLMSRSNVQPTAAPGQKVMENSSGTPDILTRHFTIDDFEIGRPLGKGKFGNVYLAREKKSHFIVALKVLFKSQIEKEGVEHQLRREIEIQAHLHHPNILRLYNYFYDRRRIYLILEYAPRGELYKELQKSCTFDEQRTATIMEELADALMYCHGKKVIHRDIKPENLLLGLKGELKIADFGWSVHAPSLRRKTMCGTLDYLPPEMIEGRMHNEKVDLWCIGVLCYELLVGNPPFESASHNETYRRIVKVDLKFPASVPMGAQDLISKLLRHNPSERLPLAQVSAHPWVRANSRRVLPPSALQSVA

COc1cc(N2CCC(N3CCN(C)CC3)CC2)ccc1Nc1ncc2c(n1)N(C)c1ccccc1C(=O)N2C showed an inhibition [1] of 38%, an inhibition [2] of 50% and an inhibition [3] of 21%. For the same compound, the inhibition [4] was 100%, the inhibition [5] was 100% and the inhibition [6] was 100%. It also gave an inhibition [7] of 100%, an inhibition [8] of 100% and an inhibition [9] of 76%. It also gave an inhibition [10] of 100%, an inhibition [11] of 40% and an inhibition [12] of 84%. It also gave an inhibition [13] of 80%, an inhibition [14] of 92% and an inhibition [15] of 73%. The inhibition [16] was 7.5%, the residual activity [17] was 84% and the residual activity [18] was 72%. It also gave a residual activity [19] of 85%, a residual activity [20] of 0.05% and a residual activity [21] of 84%. It also gave a residual activity [22] of 96%, a residual activity [23] of 98% and a residual activity [24] of 80%. For the same compound, the residual activity [25] was 69% and the residual activity [26] was 73%.

In the case of CCOc1cc(C(=O)N2CCC(N3CCN(C)CC3)CC2)ccc1Nc1ncc2c(n1)N(C1CCCC1)c1ccccc1C(=O)N2C, the inhibition [27] is reported as “inactive”.

Work on COc1cc(C(=O)N2CCC(N3CCN(C)CC3)CC2)ccc1Nc1ncc2c(n1)N(C1CCCC1)c1ccccc1C(=O)N2C yielded an inhibition [28] of -0.3%.
